Like-named read-outs stand apart in the source and are kept apart here.
Assays:
[1] = tested on: release of 3H arachidonic acid / palmitic acid radiolabel from Dictyostelium cells; assay: Fatty acid release (3H radiolabel release from labelled cells); assay type: cell-based, Dictyostelium discoideum
[2] = tested on: phosphoinositide (PIP and PIP2) turnover in Dictyostelium AX2 cells; assay: Dictyostelium phospholipid labelling (PIP and PIP2 turnover); assay type: cell-based, Dictyostelium discoideum; conditions: for activity at 500 µM: 0.1 h
Method: Phospholipid labelling was quantified using a Typhoon phosphor-imager. Even loading was determined using total lipid stain with copper sulphate.

[3] = tested on: uptake of 3H arachidonic acid / palmitic acid into Dictyostelium cells; assay: Fatty acid uptake (3H radiolabel incorporation into cells); assay type: cell-based, Dictyostelium discoideum; conditions: for EC50: Dictyostelium
[4] = tested on: self-sustaining status epilepticus in Sprague Dawley rats; assay: In vivo status epilepticus (perforant path stimulation); parameters: species or system rat; conditions: for effectiveness in status epilepticus model: previously found by the inventors
Method: This method has been described in detail previously (Walker et al., 1999). In brief, male Sprague Dawley rats […] were anesthetized with 1-2% isoflurane in O2. An earth electrode was positioned subcutaneously, and a monopolar recording electrode was implanted stereotactically into the right hippocampus (coordinates, 2.5 mm lateral and 4 mm caudal from bregma). A bipolar stimulating electrode was implanted in the right hemisphere and advanced into the angular bundle (coordinates, 4.4 mm lateral and 8.1 mm caudal from bregma) to stimulate the perforant path. The depths of the electrodes were adjusted to maximize the slope of the dentate granule cell field potential (Guo et al., 1999). The electrodes were held in place with dental acrylic and skull screws. The animals were allowed to recover from anaesthesia. Seven days later, the perforant path was electrically stimulated with 4-5 mA 50 μsec monopolar pulses at 20 Hz for 2 hr; this induced self-sustaining status epilepticus. After 10 min of self-sustaining status epilepticus, compounds or vehicle were administered and the behavioural seizures and EEG were monitored for 3 hours. At this point diazepam (10 mg/kg) was administered to all animals to stop the status epilepticus. Groups were compared by ANOVA followed by post-hoc testing using Tukey test, using SPSS.

[5] = cited from earlier work
[6] = tested on: Dictyostelium development; assay: Dictyostelium development; assay type: cell-based, Dictyostelium discoideum; conditions: concentrations found in plasma of patients (0.28-0.7 mM)
Method: Screening of a REMI library was carried out as previously described (Kuspa & Loomis, 2006) using A×2 background, with VPA resistant mutants selected for the ability to develop in the presence of 1 mM VPA on R. planticola. Identification of the ablated gene, enabled the identified PLAa (DDB_G0278525; SEQ ID NO: 16) to be recapitulated using by homologous recombination of a knockout cassette. Primers used for amplifying region within the open reading frame of the gene were (5′ […] (SEQ ID NO: 17) and 3′ […] (SEQ ID NO: 18), cloned by pCR2.1 TOPO (Invitrogen Ltd)), cloned into pUC19 using EcoRI digestion, and Sinai digested fragment from pBLPblp (Falx et al, 2004) was inserted into the EcoRV site of the insert. Genetic ablation was confirmed by PCR analysis. […] Development images were observed using a Leica CLS 150× microscope and images recorded using QICAM FAST 1394 camera. Fatty acid activation was determined by the method established by Wilson et al. (Wilson et al, 1982) with slight modifications. […] The organic phase was discarded and the aqueous phase was washed six times with 300 μl of n-heptane to remove non-activated fatty acids before the radioactivity of the acyl-CoA thioester remaining in the aqueous phase was determined in 2 ml of Lumasafe™ Plus fluid (Lumac LSC, Groningen, The Netherlands) in a scintillation counter.

[7] = Table 2; cited from earlier work
[8] = 0.5 mM VPA, 6 min treatment (printed 6 mM)
[9] = 5×PI3K knockout mutant, 0.5 mM VPA, 9 min
[10] = PIPKinA knockout mutant, 0.5 mM VPA, 9 min
[11] = cells lacking phospholipase C gene, 0.5 mM VPA, 9 min
[12] = prolyl oligopeptidase (PO) ablated cells, 0.5 mM VPA, 9 min
[13] = rPKA knockout mutant, 0.5 mM VPA, 9 min

CCCC(CCC)C(=O)O [VPA, 2-propylpentanoic acid, reference compound]
activity at 500 µM ([1]; Dictyostelium, 0.5 h, Table 3, 3H-AA labelled cells, 30 min, 0.5 mM treatment, read-out: AA release [% of control]): 50%
IC50 ([1]; Dictyostelium, 3H arachidonic acid labelled cells, read-out: IC50 of decrease in radiolabel release): 89 µM
IC50 ([1]; Dictyostelium, 3H palmitic acid labelled cells, read-out: IC50 of inhibition of tritiated palmitic acid release): 163 µM
radiolabel release activity relative to control ([1]; Table 3, 30 min, 0.5 mM): 50 % of control
reduction in radio-labelled PIP2 turnover [2, 8]: 49%
reduction in radio-labelled PIP turnover [2, 8]: 49%
reduction of PIP2 turnover ([2]; 0.5 mM VPA, 9 min treatment): 79%
reduction of PIP turnover ([2]; 0.5 mM VPA, 9 min treatment): 68%
reduction in PIP2 turnover ([2]; 0.5 mM VPA, 60 min treatment): 94%
reduction in PIP turnover ([2]; 0.5 mM VPA, 60 min treatment): 94%
reduction of PIP2 production compared to untreated cells [2, 9]: 70%
reduction of PIP production compared to untreated cells [2, 9]: 48%
activity at 500 µM ([2]; Dictyostelium, read-out: PIP Level (% control), Table 1, 0.5 mM compound, 3 min pre-treatment + 6 min labelling, wild type Dictyostelium): 32%
activity at 500 µM ([2]; Dictyostelium, read-out: PIP level % control, Table 2, VPA and straight chain acids in Dictyostelium): 32%
EC50 ([2]; Dictyostelium, 0.15 h, read-out: EC50 of inhibition of phosphoinositide turnover): 154 µM
inhibition at 250 µM ([2]; Dictyostelium, 0.15 h, read-out: inhibition of PIP2 turnover): 42%
inhibition at 250 µM ([2]; Dictyostelium, 0.15 h, read-out: inhibition of PIP turnover): 25%
reduction in PIP2 synthesis compared to untreated cells [2, 10]: 68%
reduction in PIP synthesis compared to untreated cells [2, 10]: 54%
reduction in PIP2 signalling [2, 11]: 75%
reduction in PIP signalling [2, 11]: 73%
reduction in PIP2 signalling [2, 12]: 68%
reduction in PIP signalling [2, 12]: 66%
additional reduction of PIP2 production compared to untreated cells [2, 13]: 33%
additional reduction of PIP production compared to untreated cells [2, 13]: 72%
EC50 ([3]; 3H arachidonic acid, read-out: EC50 of increase in uptake of AA): 47 µM
EC50 ([3]; 3H palmitic acid, read-out: EC50 of increase in uptake of palmitic acid): 160 µM
fatty acid uptake in cell lines lacking fcsA ([3]; fcsA -/- cells, 0.5 mM VPA): increase
seizure control in words ([4]; 400 mg/kg, 3 hour test period): strongly attenuated seizures
animals in which seizures completely stopped ([4]; 400 mg/kg, after 2 hours, 7 animals per group): did not terminate the seizures in any
spike amplitude ([4]; 400 mg/kg, first hour): 75.2±9.2%
spike amplitude ([4]; 400 mg/kg, second hour): 61.1±8.3%
spike amplitude ([4]; 400 mg/kg, third hour): 55.1±6.6%
effectiveness in status epilepticus model ([4]; high dose 600 mg/kg): effective
effectiveness in status epilepticus model ([4]; lower dose 400 mg/kg): partial effectiveness
concentration in plasma in therapeutic use ([5]; DSM IV, 2000): 400 to 700 µM
concentration in plasma of patients receiving treatment ([5]; Silva et al., 2008): 280 to 700 µM
effect on development of Dictyostelium [6]: inhibits the development
pKa [7]: 4.6
